Assay results reported in patent US20020137929A1, “1 - (3-heterocyclylphenyl) isothiourea, -isourea, -guanidine and -amidine herbicidal agents” (Intellectual Property Department, BASF Aktiengesellschaft, priority 1998, published 2002).

What was measured:
[1] = system: ECHCG (Barnyardgrass); experiment: Postemergence herbicidal evaluation; type: in vivo, Echinochloa crus-galli; settings: postemergence
Outline: (§1)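 Two-week seedlings sprayed postemergence at 40 psi; formulation: 1:1 acetone/water, 0.5% TWEEN 20; application ≈0.0156–0.500 kg/ha. Greenhouse grow-out, then 0–9 visual scoring at 4–5 weeks.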

[2] = system: ABUTH (Velvetleaf); experiment: Postemergence herbicidal evaluation; type: in vivo, Abutilon theophrasti; settings: postemergence
Outline: as §1

[3] = system: IPOHE (Morningglory, Ivyleaf); experiment: Postemergence herbicidal evaluation; type: in vivo, Ipomoea hederacea; settings: postemergence
Outline: as §1

[4] = system: CYPIR (Rice Flatsedge); experiment: Postemergence weed control under flooded paddy conditions; type: in vivo, Cyperus iria; settings: postemergence weeds, rated 3 to 4 weeks after treatment
Outline: (§2)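 With weeds 3 to 5 cm tall and rice at the 1.5 to 2.5 leaf stage, containers were flooded and water held 1.5 to 3 cm above soil. Compounds in 50/50 v/v aqueous/acetone went into the flood water at about 0.0313 to 0.500 kg/ha a.i. Effects were visually rated 0–9 against controls after three to four weeks in the greenhouse.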

[5] = system: CYPSE (Flatsedge); experiment: as above; type: in vivo, Cyperus serotinus; settings: postemergence weeds, rated 3 to 4 weeks after treatment
Outline: as §2

[6] = system: ORYSAT (Rice, Tebonnet); experiment: Postemergence herbicidal evaluation; type: in vivo, Oryza sativa, (L.) Tebonnet; settings: postemergence
Outline: as §1

[7] = system: CHEAL (Lambsquarters, Common); experiment: Postemergence herbicidal evaluation; type: in vivo, Chenopodium album; settings: postemergence
Outline: as §1

[8] = system: SETVI (Foxtail, Green); experiment: Postemergence herbicidal evaluation; type: in vivo, Setaria viridis; settings: postemergence
Outline: as §1

[9] = system: GLXMAW (Soybean, Williams); experiment: Preemergence herbicidal evaluation; type: in vivo, Glycine max, (L.) Merr. cv Williams; settings: preemergence, rated 4-5 weeks after treatment, 0-9 scale
Outline: (§3)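 Preemergence soil application of compound, sprayed in aqueous acetone at rates equivalent to about 0.0156 to 0.500 kg per hectare onto freshly sown cups. Plant response was judged by eye on a 0-9 scale four to five weeks later.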

[10] = system: ZEAMX (Corn, Field); experiment: Preemergence herbicidal evaluation; type: in vivo, Zea mays; settings: preemergence, rated 4-5 weeks after treatment, 0-9 scale
Outline: as §3

[11] = system: TRZAWR (Wheat, Winter, cv Riband); experiment: Preemergence herbicidal evaluation; type: in vivo, Triticum aestivum; settings: preemergence, rated 4-5 weeks after treatment, 0-9 scale
Outline: as §3

[12] = system: CHEAL (Lambsquarters, Common); experiment: Preemergence herbicidal evaluation; type: in vivo, Chenopodium album; settings: preemergence, rated 4-5 weeks after treatment, 0-9 scale
Outline: as §3

[13] = system: IPOHE (Morningglory, Ivyleaf); experiment: Preemergence herbicidal evaluation; type: in vivo, Ipomoea hederacea; settings: preemergence, rated 4-5 weeks after treatment, 0-9 scale
Outline: as §3

[14] = system: ZEAMX (Corn, Field); experiment: Postemergence herbicidal evaluation; type: in vivo, Zea mays; settings: postemergence
Outline: as §1

[15] = system: ECHCG (Barnyardgrass); experiment: Preemergence herbicidal evaluation; type: in vivo, Echinochloa crus-galli; settings: preemergence, rated 4-5 weeks after treatment, 0-9 scale
Outline: as §3

[16] = system: ABUTH (Velvetleaf); experiment: Preemergence herbicidal evaluation; type: in vivo, Abutilon theophrasti; settings: preemergence, rated 4-5 weeks after treatment, 0-9 scale
Outline: as §3

[17] = system: CASOB (Sicklepod); experiment: Preemergence herbicidal evaluation; type: in vivo, Cassia obtusifolia; settings: preemergence, rated 4-5 weeks after treatment, 0-9 scale
Outline: as §3

For `CCOC(=O)CN1C(=O)C(CC(=O)NS(=O)(=O)c2ccccc2)SC1=Nc1cc(-n2c(=O)cc(C(F)(F)F)n(C)c2=O)c(F)cc1Cl` (centres unmarked) [Compound 100, Ethyl 2-{{2-chloro-5-[3,6-dihydro-3-methyl-2,6-dioxo-4-(trifluoromethyl)-1(2H)-pyrimidinyl]-4-fluorophenyl}imino}-4-oxo-5-{[(phenylsulfonyl)-carbamoyl]methyl]-3-thiazolidineacetate], the “herbicidal rating ECHCG” value ([1]; rate 0.0156 kg/ha) was 1.0, the “herbicidal rating ECHCG” value ([1]; rate 0.0313 kg/ha) was 3.0 and the “herbicidal rating ECHCG” value ([1]; rate 0.0625 kg/ha) was 4.0. For the same molecule, the “herbicidal rating ECHCG” value ([1]; rate 0.1250 kg/ha) was 7.0, the “herbicidal rating ABUTH” value ([2]; rate 0.0156 kg/ha) was 9.0 and the “herbicidal rating ABUTH” value ([2]; rate 0.0313 kg/ha) was 9.0. The “herbicidal rating ABUTH” value ([2]; rate 0.0625 kg/ha) was 9.0, the “herbicidal rating ABUTH” value ([2]; rate 0.1250 kg/ha) was 9.0 and the “herbicidal rating IPOHE” value ([3]; rate 0.0156 kg/ha) was 5.0. The “herbicidal rating IPOHE” value ([3]; rate 0.0313 kg/ha) was 9.0, the “herbicidal rating IPOHE” value ([3]; rate 0.0625 kg/ha) was 9.0 and the “herbicidal rating IPOHE” value ([3]; rate 0.1250 kg/ha) was 9.0. The “Herbicidal rating CYPIR” value ([4]; Rate 0.0313 kg/ha) was 0.0, the “Herbicidal rating CYPIR” value ([4]; Rate 0.0625 kg/ha) was 0.0 and the “Herbicidal rating CYPIR” value ([4]; Rate 0.1250 kg/ha) was 0.0. The “Herbicidal rating CYPIR” value ([4]; Rate 0.2500 kg/ha) was 4.0, the “Herbicidal rating CYPIR” value ([4]; Rate 0.5000 kg/ha) was 9.0 and the “Herbicidal rating CYPSE” value ([5]; Rate 0.0313 kg/ha) was 0.0. The “Herbicidal rating CYPSE” value ([5]; Rate 0.0625 kg/ha) was 0.0, the “Herbicidal rating CYPSE” value ([5]; Rate 0.1250 kg/ha) was 0.0 and the “Herbicidal rating CYPSE” value ([5]; Rate 0.2500 kg/ha) was 0.0. The “herbicidal rating ORYSAT” value ([6]; rate 0.0156 kg/ha) was 3.0, the “herbicidal rating ORYSAT” value ([6]; rate 0.0313 kg/ha) was 3.5 and the “herbicidal rating ORYSAT” value ([6]; rate 0.0625 kg/ha) was 3.5. For the same molecule, the “herbicidal rating ORYSAT” value ([6]; rate 0.1250 kg/ha) was 3.5, the “herbicidal rating CHEAL” value ([7]; rate 0.0156 kg/ha) was 5.0 and the “herbicidal rating CHEAL” value ([7]; rate 0.0313 kg/ha) was 7.0. The “herbicidal rating CHEAL” value ([7]; rate 0.0625 kg/ha) was 7.0, the “herbicidal rating CHEAL” value ([7]; rate 0.1250 kg/ha) was 9.0 and the “herbicidal rating SETVI” value ([8]; rate 0.0156 kg/ha) was 2.0. For the same molecule, the “herbicidal rating SETVI” value ([8]; rate 0.0313 kg/ha) was 9.0, the “herbicidal rating SETVI” value ([8]; rate 0.0625 kg/ha) was 6.0 and the “herbicidal rating SETVI” value ([8]; rate 0.1250 kg/ha) was 7.0. It also gave a GLXMAW rating ([9]; 0.0313 kg/ha) of 0.0, a GLXMAW rating ([9]; 0.0625 kg/ha) of 1.0 and a GLXMAW rating ([9]; 0.1250 kg/ha) of 1.0. The GLXMAW rating ([9]; 0.2500 kg/ha) was 0.0, the GLXMAW rating ([9]; 0.5000 kg/ha) was 2.0 and the ZEAMX rating ([10]; 0.0313 kg/ha) was 0.0. For the same molecule, the ZEAMX rating ([10]; 0.0625 kg/ha) was 0.0, the ZEAMX rating ([10]; 0.1250 kg/ha) was 0.0 and the ZEAMX rating ([10]; 0.2500 kg/ha) was 0.0. The ZEAMX rating ([10]; 0.5000 kg/ha) was 1.0, the TRZAWR rating ([11]; 0.0313 kg/ha) was 0.0 and the TRZAWR rating ([11]; 0.0625 kg/ha) was 0.0. The TRZAWR rating ([11]; 0.1250 kg/ha) was 1.0, the TRZAWR rating ([11]; 0.2500 kg/ha) was 0.0 and the TRZAWR rating ([11]; 0.5000 kg/ha) was 1.0. It also gave a CHEAL rating ([12]; 0.0313 kg/ha) of 9.0, a CHEAL rating ([12]; 0.0625 kg/ha) of 9.0 and a CHEAL rating ([12]; 0.1250 kg/ha) of 9.0. It also gave a CHEAL rating ([12]; 0.2500 kg/ha) of 9.0, a CHEAL rating ([12]; 0.5000 kg/ha) of 9.0 and an IPOHE rating ([13]; 0.0313 kg/ha) of 1.0. The IPOHE rating ([13]; 0.0625 kg/ha) was 0.0, the IPOHE rating ([13]; 0.1250 kg/ha) was 0.0 and the IPOHE rating ([13]; 0.2500 kg/ha) was 2.0. For the same molecule, the IPOHE rating ([13]; 0.5000 kg/ha) was 5.0, the “herbicidal rating ZEAMX” value ([14]; rate 0.0156 kg/ha) was 4.5 and the “herbicidal rating ZEAMX” value ([14]; rate 0.0313 kg/ha) was 5.0. The “herbicidal rating ZEAMX” value ([14]; rate 0.0625 kg/ha) was 5.0, the “herbicidal rating ZEAMX” value ([14]; rate 0.1250 kg/ha) was 5.0 and the ECHCG rating ([15]; 0.0313 kg/ha) was 0.0. For the same molecule, the ECHCG rating ([15]; 0.0625 kg/ha) was 0.0, the ECHCG rating ([15]; 0.1250 kg/ha) was 0.0 and the ECHCG rating ([15]; 0.2500 kg/ha) was 1.0. For the same molecule, the ECHCG rating ([15]; 0.5000 kg/ha) was 1.0, the ABUTH rating ([16]; 0.0313 kg/ha) was 0.0 and the ABUTH rating ([16]; 0.0625 kg/ha) was 0.0. It also gave an ABUTH rating ([16]; 0.1250 kg/ha) of 2.0, an ABUTH rating ([16]; 0.2500 kg/ha) of 9.0 and an ABUTH rating ([16]; 0.5000 kg/ha) of 9.0. The CASOB rating ([17]; 0.0313 kg/ha) was 0.0, the CASOB rating ([17]; 0.0625 kg/ha) was 0.0 and the CASOB rating ([17]; 0.1250 kg/ha) was 0.0. The CASOB rating ([17]; 0.2500 kg/ha) was 0.0 and the CASOB rating ([17]; 0.5000 kg/ha) was 8.0.
